According to PubChem BioAssay (NCI):
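Results reflect a 48-hour exposure of cells in 96-well plates to compound at five concentrations. The concentration for full growth arrest is given as TGI.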

Experiments:
Assay in all cases: NCI tumour cell line growth inhibition, 48 h
A498 renal = system: A498 renal
A549 NSCLC = system: A549 NSCLC
CAKI-1 renal = system: CAKI-1 renal
CCRF-CEM leukemia = system: CCRF-CEM leukemia
HCC-2998 colon = system: HCC-2998 colon
HCT-116 colon = system: HCT-116 colon
HCT-15 colon = system: HCT-15 colon
HL-60(TB) leukemia = system: HL-60(TB) leukemia
K-562 leukemia = system: K-562 leukemia
KM12 colon = system: KM12 colon
NCI-H23 lung = system: NCI-H23 lung
NCI-H460 lung = system: NCI-H460 lung
OVCAR-3 ovarian = system: OVCAR-3 ovarian
OVCAR-4 ovarian = system: OVCAR-4 ovarian
RPMI-8226 leukemia = system: RPMI-8226 leukemia
SF-268 CNS = system: SF-268 CNS
SNB-75 CNS = system: SNB-75 CNS
U251 CNS = system: U251 CNS
M14 melanoma = system: M14 melanoma
786-0 renal = system: 786-0 renal

| Structure (SMILES) | TGI (A498 renal) [µM] | TGI (A549 NSCLC) [µM] | TGI (CAKI-1 renal) [µM] | TGI (CCRF-CEM leukemia) [µM] | TGI (HCC-2998 colon) [µM] | TGI (HCT-116 colon) [µM] | TGI (HCT-15 colon) [µM] | TGI (HL-60(TB) leukemia) [µM] | TGI (K-562 leukemia) [µM] | TGI (KM12 colon) [µM] | TGI (NCI-H23 lung) [µM] | TGI (NCI-H460 lung) [µM] | TGI (OVCAR-3 ovarian) [µM] | TGI (OVCAR-4 ovarian) [µM] | TGI (RPMI-8226 leukemia) [µM] | TGI (SF-268 CNS) [µM] | TGI (SNB-75 CNS) [µM] | TGI (U251 CNS) [µM] | TGI (M14 melanoma) [µM] | TGI (786-0 renal) [µM] |
| --- | --- | --- | --- | --- | --- | --- | --- | --- | --- | --- | --- | --- | --- | --- | --- | --- | --- | --- | --- | --- |
| CNC(=O)OCc1nc(SC)n(C)c1CO | > 100 | > 100 | > 100 | > 100 | > 100 | > 100 | > 100 | > 100 | > 100 | > 100 | > 100 | > 100 | > 100 | > 100 | > 100 | > 100 | > 100 | > 100 |  |  |
| CC(C)(C)[Si](OC1CCOC1=O)(c1ccccc1)c1ccccc1 (stereo not given) | 63.8 | 62.7 |  | > 100 | 47 | 26.6 | 61.5 | > 100 |  | > 10 | 77.1 | 49.3 | 27.1 |  | > 100 | > 100 | > 100 | 30.1 | 38.4 |  |
| COc1ccccc1/C=C/c1ccnc2ccccc12 | 29.5 | 31 | 40.3 | 34.8 | 31.3 | 26.5 | 25 | 26 | 30.7 | 25.3 | 27.9 | 28.9 | 26.7 | 25.4 | 37.8 | 29.4 | 17 | 24.2 | 29.7 | 27.7 |
| COc1cc(C(=O)NC2CCc3cc(OC)c(OC)c(OC)c3-c3ccc(OC)c(=O)cc32)cc(OC)c1OC (stereo not given) | 8.44 | > 100 | 34 | > 35 | 1.16 | 1.69 | > 100 | 0.262 | 22 | 0.801 | 12.8 | 15.3 | 0.261 | > 85.1 | 27.4 | 42.4 | 18.3 | 33.4 | 10.5 | 70.9 |
| Cc1c2ccccc2c(C2C3C(=O)N(c4ccc(Br)cc4)C(=O)C3ON2C(C(N)=O)c2ccccc2)c2ccccc12 (stereo not given) | 11.7 | 14.1 | 21.3 | 22.4 | 26.6 | > 100 | 18.7 | 14 | > 100 | 22.1 | 26.9 | 22.2 | 12.2 | > 100 | 4.63 | > 100 | 17.3 | 8.94 | > 100 | 33.1 |
| CC(=O)Oc1ccccc1 | > 100 | > 100 | > 100 | > 100 |  | > 100 | > 100 | > 100 | > 100 | > 100 | > 100 | > 100 | > 100 | > 100 | > 100 | > 100 | > 100 | > 100 | > 100 | > 100 |
| C[C@@H]1C[C@H]2[C@@H]3CCC4=CC(=O)C=C[C@]4(C)[C@@]3(F)[C@@H](O)C[C@]2(C)[C@@]1(O)C(=O)CO |  | > 100 | > 100 | > 100 |  | > 100 | > 100 | > 100 | > 100 | > 100 | > 100 |  | > 100 | > 100 |  |  |  |  | > 100 | > 100 |
| Cc1ccc(O)c(Cc2nc3ccccc3nc2-c2cccc(Cl)c2)c1 |  | > 100 | > 100 |  | > 100 | > 100 | 46.1 | > 100 | > 100 | > 100 | > 100 | > 100 | > 100 | 65.8 | 79.4 | > 100 |  | > 100 | > 100 | > 100 |
| O=C(C=P(c1ccccc1)(c1ccccc1)c1ccccc1)c1ccc(-c2cccs2)cc1 | 10.8 | 11.6 | 19.6 | 22.1 | 6.46 | 13.9 | 24.7 | 4.87 | 15.9 | 15 | 56.2 | 12.2 | 8.52 | 7.52 | 5.07 | 27.1 | 8.86 | 14.7 | 7.75 | 17.6 |
| CCCCc1ccc(N=C(N)N)cc1 | > 100 | > 100 | > 100 | 53.7 | 30.4 | > 100 | > 100 | 73.6 | 83.4 | 36.6 | > 100 | 61.8 | > 100 | > 100 | 45.2 | > 100 |  | > 100 | 63.5 | 48.8 |
| Cc1ccc2c(c1)SC1=Nc3sc4cc(C)ccc4[n+]3CN12 | 87.1 | 67.1 |  |  | 6.62 | 35 | > 100 | 9.77 |  |  | 13.6 | > 100 | 6.97 | 29.6 | 6.17 | > 100 | 64.5 | 19 | 19.1 | > 100 |
| c1ccc2c(CSCc3cccc4ccccc34)cccc2c1 | > 100 | > 100 | > 100 | > 100 | > 100 | > 100 | > 100 |  | > 100 | > 100 | > 100 | > 100 | > 100 | > 100 |  | > 100 | > 100 | > 100 | > 100 | > 100 |
| CCCCN1C(=O)C2Cc3c([nH]c4ccccc34)C(c3cccc(O)c3)N2C1=O (stereo not given) | 32.8 | 35 | 33.9 | 36.2 | 34.2 | 34.9 | 37.2 | 46.2 | 47.5 | 36.2 | 37.9 | 37.1 | 30.2 | 34.6 | 51.2 | 34.7 | 32.7 | 33.5 | 34.4 | 34.4 |
| C[C@H]1C[C@@H]2[C@H]([C@@H](O)C[C@@]3(C)[C@H]2CC[C@]3(O)C(=O)CO)[C@@]2(C)C=CC(=O)C=C12 | > 100 | > 100 | > 100 | > 100 | > 100 | > 100 | > 100 | > 100 | > 100 | > 100 | > 100 | > 100 | > 100 | > 100 | > 100 |  |  |  | > 100 | > 100 |
| CC(=O)Nc1ccc2c(c1)/C(=C\c1ccc([N+](C)(C)C)cc1)c1ccccc1-2 | > 100 | > 100 | > 100 | 50.9 | > 100 | > 100 | > 100 | 59.5 | > 100 | > 100 | > 100 | > 100 | > 100 | > 100 | 91.3 | > 100 | > 100 | > 100 | 33.8 | > 100 |
| CCOC(=O)c1cnc(N(C)C)nc1SC(=N)N | > 100 | > 100 | > 100 |  |  | > 100 | > 100 |  | > 100 | > 100 | > 100 | > 100 | > 100 | > 100 | > 100 | > 100 | > 100 | > 100 | > 100 | > 100 |
